Reference: patent US7608585B2, “Compositions for inhibition of necrosis induced by a neurotrophin” (Neurotech Pharmaceuticals Co., Ltd., priority 2004, dated 2009)
Where two headings read alike, the source gives them in different places.

Tests used:
[1] = system: free radical neurotoxicity; details: as anti-oxidants; cited from earlier work
[2] = system: BDNF-induced neuronal death in cortical cell cultures; experiment: Protection against BDNF-induced neuronal death, LDH efflux; format: cell-based, Rat; details: for Swelling of neuronal cell body and neuronal death: 36 hr after exposure to BDNF, 3-10 nM DPI, 10-30 μM AEBSF; for BDNF neurotoxicity / BDNF-induced neuronal cell necrosis (LDH efflux): 100 ng/ml BDNF, 36 hr, 100 μg/ml anti-BDNF antibody, 100 μM trolox, 1 μg/ml cycloheximide
Procedure: Cortical cell cultures (DIV 12-15) were exposed to 100 ng/ml BDNF, alone or in the presence NADPH oxidase inhibitors, 3-10 nM DPI, 10-30 μM 4-(2-amonoethyl)-benzensulfonyl fluoride (AEBSF), or 1 μM 2-Hydroxy-TTBA ((2-Hydroxy-5-(2,3,5,6-tetrafluoro-4-trifluoromethyl-benzylamino)-benzoic acid). Neuronal death was analyzed 36 hr later by measurement of LDH efflux into the bathing medium.

[3] = system: ROS in cortical neurons; experiment: ROS imaging by oxidized DCDHF-DA (DCF) and hydroethidine fluorescence; format: cell-based, Rat; details: for BDNF-induced production of [ROS]i: concurrent addition with 100 ng/ml BDNF, 32 hr
Procedure: Cortical cell cultures (DIV 12-15) grown on glass bottom dishes were loaded with 10 μM dichlorodihydro fluorescein diacetate (DCDHF-DA) or 5 μM hydroethidium (Molecular Probes, Eugene, Oreg.) plus 2% Pluronic F-127 in HEPES-buffered control salt solution (HCSS) buffer containing (in mM): 120 NaCl, 5 KCl, 1.6 MgCl2, 2.3 CaCl2, 15 glucose, 20 HEPES, and 10 NaOH. Cultures were incubated for 20 min at 37° C., and washed three times with HCSS buffer. […] The fluorescence images were analyzed using a QuantiCell 700 system (Applied imaging, UK).
Superoxide production through activation of NADPH oxidase was analyzed by measuring the oxidation of HEt and DCDHF to ethidium and DCF, respectively, in cortical neurons after exposure to a sham operation, 100 ng/ml BDNF, or 100 ng/ml BDNF plus 3 nM DPI for 32 hr (FIG. 15).

[4] = system: Neuron-rich cortical cell cultures; experiment: Serum deprivation-induced neuronal apoptosis, counting viable neurons; format: cell-based, Rat; details: for Anti-apoptotic action of BDNF on inclusion of the substance: 100 ng/ml BDNF plus 3 nM DPI or 100 μM trolox; for Serum deprivation-induced neuronal apoptosis: alone, without BDNF; for Serum deprivation-induced neuronal apoptosis / Delayed neuronal death evolving in the presence of BDNF: 3 nM DPI, 100 μM trolox; for Delayed neuronal death evolving in the presence of BDNF: concurrent addition, 48 hr
Procedure: (§1) For neuron-glia mixed cultures, 10 μM cytosine arabinoside (Ara C) was included to stop the overgrowth of non-neuronal cells to cultures at DIV 5-7 when glial cells were confluent underneath neurons. After 2 days, cultures were then fed with plating medium lacking fetal serum twice a week. Cultures were maintained at 37° C. in a humidified 5% CO2 incubator. For neuron-rich cultures (>95%), 2.5 μM Ara C was included to cultures at 2-3 days in vitro (DIV 2-3) as previously described (Gwag et al., 1997).
(§2) Mixed cortical cell cultures (DIV 12-14) were rinsed in serum free MS (MEM supplemented with 26.5 mM sodium bicarbonate and 21 mM glucose) and then exposed to various concentrations of NGF, BDNF or NT-3 in serum free MS. Neuronal cell death was analyzed by measuring the level of lactate dehydrogenase (LDH) released into the bathing medium. The percent neuronal death was normalized to the mean LDH value released after a sham control (defined as 0%) or continuous exposure to 500 μM NMDA for 24 hr (defined as 100%) The latter produces complete neuronal death within 24 hr. For experiments for serum deprivation, neuron-rich cortical cell cultures (DIV 7) were placed into serum free MS containing 1 μM MK-801 as described (Gwag et al., 1995). Neuronal death was analyzed 24 and 48 hr later by counting viable neurons excluding Trypan Blue satained.
Neuron-rich cortical cell cultures (DIV 7) were deprived of serum, alone (serum deprivation) or in the presence of 100 ng/ml BDNF, 100 ng/ml BDNF plus 3 nM DPI, 3 nM DPI, 100 ng/ml BDNF plus 100 μM trolox, or 100 μM trolox. Neuronal death was assessed 24 hr and 48 hr later by counting viable neurons.

[5] = system: Mixed cortical cell cultures; format: cell-based, Rat
Procedure: Rat cortical cell cultures were prepared from the 17-day-old fetal brain and the neocortices were mechanically triturated as previously described (Noh and Gwag, 1997). Dissociated cells were plated on 6-well plates and 24-well plates (approximately 3 cortices per plate), or on glass bottom 35 mm dishes for ROS imaging. Plating media consist of Eagle's minimal essential media (MEM, Earle's salts, supplied glutamine-free) supplemented with 5% horse serum, 5% fetal bovine serum, 21 mM glucose, 26.5 mM bicarbonate and 2 mM L-glutamine.
as §1
To examine if neurotrophins would induce neuronal necrosis, BDNF-induced neuronal death was analyzed by measuring the level of lactate dehydrogenase (LDH) released into the bathing medium.
as §2
Neuronal cell death was assessed by measurement of LDH efflux to the bathing medium, mean±SEM (n=16 culture wells per condition). *, Significant difference from the relevant control (sham washed control), at P<0.05 using analysis of variance and Student-Newman-Keuls test.

[6] = system: cortical neurons; format: cell-based
Procedure: To examine the patterns of BDNF-induced neuronal death, we observed neurons from 32 hrs after a sham wash or continuous exposure to 100 ng/ml BDNF under phase contrast or transmission electron microscope.
Cultures were fixed in Karnovskys fixative solution (1% paraformaldehyde, 2% glutaraldehyde, 2 mM calcium cholride, 100 mM cacodylate buffer, pH 7.4) for 2 hr, washed with cacodylate buffer, and post-fixed in 1% osmium tetroxide and 1.5% potassium ferrocyanide for 1 hr. Cells were then stained en bloc in 0.5% uranyl acetate, dehydrated through graded ethanol series, and embedded in Poly/Bed 812 resin (Pelco, Calif.). Cells were sectioned using Reichert Jung Ultracut S (Leica, Cambridge, UK). After staining cells with uranyl acetate and lead citrate, cells were observed and photographed under Zeiss EM 902A.

[7] = 36 hr after 100 ng/ml BDNF, 3 nM DPI, 10 μM AEBSF, 1 μM 2-Hydroxy-TTBA

O=C(O)c1cc(NCc2c(F)c(F)c(C(F)(F)F)c(F)c2F)ccc1O [2-Hydroxy-TTBA, 2-Hydroxy-5-(2,3,5,6-tetrafluoro-4trifluoromethyl-benzylamino)-benzoic acid]
Free radical neurotoxicity [1]: block free radical neurotoxicity | Neuronal necrosis (LDH efflux) [2, 7]: significantly reduced

NCCc1ccc(S(=O)(=O)F)cc1 [AEBSF, 4-(2-amonoethyl)-benzensulfonyl fluoride]
Neuronal necrosis (LDH efflux) [2, 7]: significantly reduced | Swelling of neuronal cell body and neuronal death [2]: significantly reduced

c1ccc2c(c1)[I+]c1ccccc1-2 [DPI, diphenylene iodonium]
BDNF-induced superoxide production (oxidation of HEt and DCDHF) [3]: completely blocked | Anti-apoptotic action of BDNF on inclusion of the substance [4]: insensitive | Serum deprivation-induced neuronal apoptosis [4]: Neither DPI nor trolox alone reduced | Delayed neuronal death evolving in the presence of BDNF [4]: attenuated | Neuronal necrosis (LDH efflux) [2]: significantly reduced | Swelling of neuronal cell body and neuronal death [2]: significantly reduced

O=C(O)c1cc(NCc2ccc(F)cc2)ccc1O [FBAS, 5-(4-fluorobenxyl) aminosalicylic acid]
Free radical neurotoxicity [1]: block free radical neurotoxicity

COc1ccc(CNc2ccc(O)c(C(=O)O)c2)cc1 [MBAS]
Free radical neurotoxicity [1]: block free radical neurotoxicity

C[C@@H]1C[C@@H]([C@H](O)CC2CC(=O)NC(=O)C2)C(=O)[C@@H](C)C1 [cycloheximide, reference compound]
BDNF-induced production of [ROS]i [3]: prevented | BDNF neurotoxicity / BDNF-induced neuronal cell necrosis (LDH efflux) [2]: blocked

Cc1c(C)c2c(c(C)c1O)CCC(C)(C(=O)O)O2 (stereo not shown) [trolox]
BDNF-induced production of [ROS]i [3]: prevented | Anti-apoptotic action of BDNF on inclusion of the substance [4]: insensitive | Serum deprivation-induced neuronal apoptosis [4]: Neither DPI nor trolox alone reduced | Delayed neuronal death evolving in the presence of BDNF [4]: attenuated | BDNF neurotoxicity / BDNF-induced neuronal cell necrosis (LDH efflux) [2]: blocked

NT-3: neurotrophin-3, a neurotrophin
Cell necrosis induced by neurotrophin [5]: derives cell necrosis | Neuronal death (LDH efflux to the bathing medium) [5]: Near complete neuronal death

B1: BDNF: brain-derived neurotrophic factor, a neurotrophin (protein, UniProt P23560 19-247, looked up)
Neurotrophic factor BDNF …: APMKEANIRGQGGLAYPGVRTHGTLESVNGPKAGSRGLTSLADTFEHVIEELLDEDQKVRPNEENNKDADLYTSRVMLSSQVPLEPPLLFLLEEYKNYLDAANMSMRVRRHSDPARRGELSVCDSISEWVTAADKKTAVDMSGGTVTVLEKVPVSKGQLKQYFYETKCNPMGYTKEGCRGIDKRHWNSQCRTTQSYVRALTMDSKKRIGWRFIRIDTSCVCTLTIKRGR
Cell necrosis induced by neurotrophin [5]: derives cell necrosis | Neuronal death (LDH efflux to the bathing medium) [5]: Near complete neuronal death | Pattern of neuronal death under transmission electron microscope [6]: induced neuronal necrosis

B2: NT-4/5: a neurotrophin (protein, UniProt P34130 81-210, looked up)
Neurotrophin-4: GVSETAPASRRGELAVCDAVSGWVTDRRTAVDLRGREVEVLGEVPAAGGSPLRQYFFETRCKADNAEEGGPGAGGGGCRGVDRRHWVSECKAKQSYVRALTADAQGRVGWRWIRIDTACVCTLLSRTGRA
Cell necrosis induced by neurotrophin [5]: derives cell necrosis
